Data on five substances can be found in PMC9054013, “FCHO controls AP2’s initiating role in endocytosis through a PtdIns(4,5)P2-dependent switch” (Science Advances, 2022).

The subject of assay [1] is BR4-mutated (K339A, K341A, K343A, and K345A) His6-MBP-Cμ2. Kind of assay: GST pull-down of BR4-mutated His6-MBP-Cμ2. Particulars: Coomassie SDS-PAGE. It counts as binding. The protocol: A measured amount of GST or GST-fusion protein was immobilized onto 60 μl of 50% slurry of GSH Sepharose beads in microfuge tubes and the volume made up to 750 μl with buffer. After incubation at 4°C with continuous mixing, the Sepharose beads were recovered by centrifugation (10,000g for 1 min), and the supernatants were removed. Each bead pellet was washed three times with cold assay buffer, and most of the buffer was carefully aspirated, leaving a final equivalent volume of ~50 μl.

In a further assay the target is T1, AP2 α-appendage (Mus musculus, UniProt P17427).
T1 construct: GST-tagged Cμ2 and α-appendage proteins were made as in ([51]); GST (cleaved yes); made in house; host or cells: Escherichia coli BL21 plyS
T1 sequence (P17427 701-938 limits assumed): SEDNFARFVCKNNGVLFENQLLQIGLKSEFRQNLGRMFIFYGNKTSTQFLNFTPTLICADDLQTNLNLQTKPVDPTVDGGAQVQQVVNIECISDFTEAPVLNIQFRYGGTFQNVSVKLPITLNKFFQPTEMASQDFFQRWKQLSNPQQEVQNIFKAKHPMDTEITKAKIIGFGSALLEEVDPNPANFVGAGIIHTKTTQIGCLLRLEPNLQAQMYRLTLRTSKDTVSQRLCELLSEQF
In words: Isothermal titration calorimetry with α-appendage. It counts as binding. Particulars: ITC. (In general: Isothermal titration calorimetry measures the heat released or taken up as one component is titrated into another.)

Another assay deals with T2, Cμ2.
T2 construct: Surface representations of the Cμ2 subdomain structure; His6; made in house; host or cells: Escherichia coli BL21 plyS
Particulars: read-out: KD of YxxΦ cargo peptide binding to Cμ2; cited from earlier work. An excerpt: page 20: Fig.S8 Details of FCHO C block binding to α -appendage and to Cµ2 A, B FCHO1 C block (claret) bound to AP2 α-appendage (blue). […] B 1.4 Å resolution 2Fo-Fc map contoured at 1.6σ. An apo structure of the α-appendage was used as MR search model (PDB 1W80 without ligands) – the direction of the peptide chain is clearly opposite to that of the published DP[FW], FxDxF motif/α-appendage complexes. C, D FCHO2 C block (claret ...

Where no end group is shown, it is not given here.

As usually defined, the Kd is the concentration at which binding is half-saturated.

Consider “SERINC3-L10: GST SERINC-L10 (residues 354 to 404), Serinc3 loop binding Cμ2 only at BR4 (RTSTNSQVDKLTLSGSDSVILGDTTTSGASDEEDGQPRRAVDNEKEGVQYS; also: GST fusion, end not given here)”, for which the “binding to BR4-mutated Cμ2 compared with WT Cμ2” value in assay [1] is “severely inhibited”. Take SDLLAWDPLFG [FCHO2 C peptide]: at AP2 α-appendage (100 mM tris pH 7.4, 150 mM NaCl, 0.25 mM TCEP, 12°C, mean ± SEM, minimum three independent runs, read-out: KD of C block peptide binding to α-appendage), the Kd was 100 to 200 µM.

As to “FCHO1 C: GST-FCHO1 C (residues 414 to 444), Fig. 4B construct ({GST}-SAPRTSSCAERLQSEEQVSKNLFGPPLESAF; UniProt O14526 414-444, looked up, fragment)”, the “n (stoichiometry) of C block peptide binding to α-appendage” value with AP2 α-appendage was determined as 1.0. As for “FCHO2 C: GST-FCHO2 C (residues 413 to 444), Fig. 4B construct ({GST}-SAPPNEKGTSDLLAWDPLFGPSLDSSSSSSLT; UniProt Q0JRZ9 413-444, looked up, fragment)”, the “n (stoichiometry) of C block peptide binding to α-appendage” value with AP2 α-appendage amounted to 1.0. “DYQRLN [TGN38, TGN38 YxxΦ cargo peptide (DYQRLN)]”: the Kd on Cμ2 is roughly 2 µM.
